Reference: patent publication US6620822B1, “Fungicidal combinations of active substance” (priority 1999, dated 2003)

What was measured:
Format in all cases: in vivo
[1] = system: Erysiphe graminis f.sp. hordei; test: Erysiphe test (barley)/curative; settings: curative, single active compound, evaluation 7 days after inoculation
Sphaerotheca fuliginea = test: Sphaerotheca test (cucumber)/protective; settings: protective, single active compound, evaluation 10 days after inoculation
Phytophthora infestans = settings: tomato, protective, single active compound, application rate 5 g/ha, evaluation 3 days after inoculation

Structure (SMILES): Fc1ccc(Oc2ccnc3cc(Cl)cc(Cl)c23)cc1 [(I), 5,7-dichloro-4-(4-fluoro-phenoxy)-quinoline]
- Efficacy in % ([1]; application rate 6.25 g/ha): 43%
- Efficacy in % ([1]; application rate 25 g/ha): 57%
- Efficacy in % (Sphaerotheca fuliginea; application rate 5 g/ha): 57%
- Efficacy in % (Sphaerotheca fuliginea; application rate 10 g/ha): 63%
- Efficacy in % (Phytophthora infestans): 4%

Structure (SMILES): Cc1ccc(N(SC(F)(Cl)Cl)S(=O)(=O)N(C)C)cc1 [(III), N-dichloro-fluoro-methylthio-N′,N′-dimethyl-N-p-tolylsulfamide]
- Efficacy in % (Sphaerotheca fuliginea; application rate 50 g/ha): 0%

Structure (SMILES): CC(C)(C)C(O)C(Oc1ccc(Cl)cc1)n1cncn1 (stereo not drawn) [(IIa), 1-(4-chloro-phenoxy)-3,3-dimethyl-1-(1,2,4-triazol-1-yl)-butan-2-ol]
- Efficacy in % ([1]; application rate 25 g/ha): 93%
- Efficacy in % (Sphaerotheca fuliginea; application rate 5 g/ha): 63%

Structure (SMILES): CC(C)(C)C(O)C(Oc1ccc(-c2ccccc2)cc1)n1cncn1 (stereo not drawn) [(IIb), 1-(4-phenyl-phenoxy)-3,3-dimethyl-1-(1,2,4-triazol-1-yl)-butan-2-ol]
- Efficacy in % (Sphaerotheca fuliginea; application rate 10 g/ha): 27%

Structure (SMILES): CC1CNC(=S)[S][Zn][S]C(=S)N1 (stereo not drawn) [(IV), zinc propylene-1,2-bis-(dithiocarbamidate)]
- Efficacy in % (Sphaerotheca fuliginea; application rate 50 g/ha): 0%

Structure (SMILES): CC1(C(=O)Nc2ccc(O)c(Cl)c2Cl)CCCCC1 [(V)]
- Efficacy in % (Sphaerotheca fuliginea; application rate 10 g/ha): 0%

Structure (SMILES): Cc1ccc(C(C)NC(=O)C(NC(=O)OC(C)C)C(C)C)cc1 (stereo not drawn) [(VI)]
- Efficacy in % (Sphaerotheca fuliginea; application rate 10 g/ha): 0%
